Results from patent publication US6878742B2, “Heterocyclic sulfonamide inhibitors of beta amyloid production” (Wyeth, priority 2000, dated 2005).
Where “and” joins values, the source holds several entries; their conditions need not be identical. Identical values can stand only once. Like-named read-outs stand apart in the source and are kept apart here.

Assays:
[1] = system: amyloid precursor protein (APP) proteolysis; test: Repressor Release Assay (RRA); assay type: cell-based; settings: for fold induction at 20 µg/mL / fold induction at 1 µg/mL / fold induction at 3 µg/mL / fold induction at 10 µg/mL: read-out: APPI Fold Increase; for fold induction at 1 µg/mL: Conc 1 μg/mL; for fold induction at 3 µg/mL: Conc 3 μg/mL
How it was run: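 This repressor release assay monitors APP proteolysis in mammalian cells. Transfected CHO-K1 cells (pRSVO-luc plus APP-lacI) were seeded at […], treated with compound diluted in 25 mM Hepes, then incubated 36-48 hours. After replacing media with PBS and adding LucLite lysis/substrate buffer, luminescence was measured, and fold increase over diluent control was calculated.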

[2] = Conc 20 μg/mL, luciferase activity over diluent control
[3] = Conc 10 μg/mL, luciferase activity over diluent control
[4] = luciferase activity over diluent control

O=S(=O)(NC(CO)C1CCSCC1)c1ccc(Cl)s1 (stereo not shown) [Example 224, 5-Chloro-N-(2-hydroxy-1-tetrahydro-H-thiopyran-4-ylethyl)thiophene-2-sulfonamide]
fold induction at 20 µg/mL [1, 2]: 7.2 | melting point: 108 to 110 °C

CCC(C)C(NS(=O)(=O)c1ccc(Cl)s1)C(O)CC(C)C (mixture of isomers) [Example 126]
APPI Fold Increase [1, 3]: 5.25 fold and 3.31 fold

CC[C@H](C)[C@@H](CO)NS(=O)(=O)c1cccs1 [Example 7, N-[(1S,2S)-1-(hydroxymethyl)-2-methylbutyl]thiophene-2-sulfonamide]
APPI Fold Increase [1, 2]: 3.2 fold

CCC(CO)(CO)NS(=O)(=O)c1ccc(Cl)s1 [Example 93, N-[1,1-bis(hydroxymethyl)propyl]-5-chlorothiophene-2-sulfonamide]
fold induction at 20 µg/mL [1, 2]: 2

O=S(=O)(N[C@H](CO)C1CCC(OCc2ccccc2)CC1)c1ccc(Cl)s1 (stereo partly drawn) [Example 202, N-{(S)-1-[4-(benzyloxy)cyclohexyl]-2-hydroxyethyl}-5-chlorothiophene-2-sulfonamide]
fold induction at 20 µg/mL [1, 2]: 2

CC[C@H](C)[C@@H](/C=N\O)NS(=O)(=O)c1ccc(Cl)s1 [Example 229]
fold induction at 20 µg/mL [1, 2]: 6.3

O=S(=O)(N[C@H](CO)C1CCCCC1)c1ccc(Cl)s1 [Example 12, 5-Chloro-N-[(1S)-1-cyclohexyl-2-hydroxyethyl]thiophene-2-sulfonamide]
fold induction at 1 µg/mL [1, 4]: 2.58 | fold induction at 3 µg/mL [1, 4]: 3.07 | fold induction at 10 µg/mL [1, 3]: 4.2 | fold induction at 20 µg/mL [1, 2]: 4.3

CCC(CC)[C@H](NS(=O)(=O)c1ccc(Cl)s1)C(C)O (stereo partly drawn) [Example 222, 5-Chloro-N-[(S)-2-ethyl-1-(1-hydroxyethyl)butyl]thiophene-2-sulfonamide]
fold induction at 20 µg/mL [1, 2]: 7.2 | melting point: 95 to 98 °C

CC[C@H](C)[C@@H](CO)NS(=O)(=O)c1ccc(Cl)o1 [Example 204, 5-Chloro-N-[(1S,2S)-1-(hydroxymethyl)-2-methylbutyl]-2-furansulfonamide]
fold induction at 20 µg/mL [1, 2]: 2.8

CC(C)[C@@H](CO)NS(=O)(=O)c1ccc(Cl)s1 [Example 8, 5-Chloro-N-[(1S)-1-(hydroxymethyl)-2-methylpropyl]thiophene-2-sulfonamide]
fold induction at 1 µg/mL [1, 4]: 1.5 | fold induction at 3 µg/mL [1, 4]: 2.5 | fold induction at 10 µg/mL [1, 3]: 3.7 | fold induction at 20 µg/mL [1, 2]: 3.3

C=CCOC1CCC([C@@H](CO)NS(=O)(=O)c2ccc(Cl)s2)CC1 (stereo partly drawn) [Example 201, N-{(S)-1-[4-(allyloxy)cyclohexyl]-2-hydroxyethyl}-5-chlorothiophene-2-sulfonamide]
fold induction at 20 µg/mL [1, 2]: 2.2

CCC(CC)[C@@H](CO)NS(=O)(=O)c1ccc(F)s1 [Example 227, N-[(S)-2-Ethyl-1-(hydroxymethyl)butyl]-5-fluorothiophene-2-sulfonamide]
fold induction at 20 µg/mL [1, 2]: 26.3

CC[C@H](C)[C@H](NS(=O)(=O)c1ccc(Cl)s1)C(O)c1ccc(OC)cc1 (stereo partly drawn) [Example 134, 5-chloro-N-{(S,S)-1-[hydroxy(4-methoxyphenyl)methyl]-2-methylbutyl}thiophene-2-sulfonamide]
fold induction at 10 µg/mL [1, 3]: 2.42

CCCCC[C@H](CC(C)C)[C@@H](CO)NS(=O)(=O)c1ccc(Br)s1 [Example 63, 5-bromo-N-[(1S,2R)-1-(hydroxymethyl)-2-isobutylheptyl]thiophene-2-sulfonamide]
fold induction at 20 µg/mL [1, 2]: 3.3

CCCCCC[C@@H](CCCCC)[C@@H](CO)NS(=O)(=O)c1ccc(Br)s1 [Example 65, 5-bromo-N-[(1S,2R)-1-(hydroxymethyl)-2-pentyloctyl]thiophene-2-sulfonamide]
fold induction at 20 µg/mL [1, 2]: 1.9

CC(NC1CCCC1)[C@@H](CO)NS(=O)(=O)c1ccc(Cl)s1 (stereo partly drawn) [Example 86, 5-chloro-N-[(1S)-2-(cyclopentylamino)-1-(hydroxymethyl)propyl]-2-thiophenesulfonamide]
fold induction at 20 µg/mL [1, 2]: 20

CCCCCC(O)C(NS(=O)(=O)c1ccc(Cl)s1)C(C)CC (mixture of isomers) [Example 122]
APPI Fold Increase [1, 3]: 1.68 fold and 1.8 fold

CCCCCC[C@@H](C)[C@@H](CO)NS(=O)(=O)c1ccc(Br)s1 [Example 57, 5-bromo-N-[(1S,2R)-1-(hydroxymethyl)-2-methyloctyl]thiophene-2-sulfonamide]
fold induction at 20 µg/mL [1, 2]: 6.4

CCCCCCC(O)C(NS(=O)(=O)c1ccc(Cl)s1)C(C)CC (mixture of isomers) [Example 121]
APPI Fold Increase [1, 3]: 1.74 fold and 1.5 fold and 1.56 fold

O=S(=O)(N[C@H](CO)CC1CCCCC1)c1ccc(Cl)s1 [Example 95]
APPI Fold Increase [1, 3]: 1.9 fold

O=S(=O)(N[C@H](CO)C1CCNCC1)c1ccc(Cl)s1 [Example 225, 5-Chloro-N-[(S)-2-hydroxy-1-piperidin-4-ylethyl]thiophene-2-sulfonamide]
fold induction at 20 µg/mL [1, 2]: 8

CC(C)(C)[C@@H](CO)NS(=O)(=O)c1ccc(Cl)s1 [Example 98]
APPI Fold Increase [1, 3]: 2.43 fold

CCC[C@@H](O)[C@@H](NS(=O)(=O)c1ccc(Cl)s1)[C@@H](C)CC [Example 187, 5-chloro-N-{(S,R)-2-hydroxy-1-[(S)-1-methylpropyl]pentyl}thiophene-2-sulfonamide]
APPI Fold Increase [1, 2]: 5.7 fold and 3 fold

5-bromo-N-{(S,S)-1-[R-1-hydroxyethyl]-2-methylbutyl}thiophene-2-sulfonamide [Example 191]
APPI Fold Increase [1, 2]: 5.4 fold and 4.8 fold

C[C@@H](c1ccco1)[C@@H](CO)NS(=O)(=O)c1ccc(Br)s1 [Example 70, 5-bromo-N-[(1S,2R)-2-(2-furyl)-1-(hydroxymethyl)propyl]thiophene-2-sulfonamide]
fold induction at 20 µg/mL [1, 2]: 4.6

CCC[C@H](CC(C)C)[C@@H](CO)NS(=O)(=O)c1ccc(Cl)s1 [Example 35, 5-chloro-N-[(1S,2R)-1-(hydroxymethyl)-4-methyl-2-propylpentyl]thiophene-2-sulfonamide]
fold induction at 20 µg/mL [1, 2]: 3.7

O=S(=O)(N[C@H](CO)C1CCC(NCc2cccnc2)CC1)c1ccc(Cl)s1 (stereo partly drawn) [Example 216, 5-chloro-N-[(S)-2-hydroxy-1-(4-(3-pyridyl)methylaminocyclohexyl)ethyl]thiophene-2-sulfonamide]
fold induction at 20 µg/mL [1, 2]: 1.5

CCCCC[C@H](CC)[C@@H](CO)NS(=O)(=O)c1ccc(Br)s1 [Example 62, 5-bromo-N-[(1S,2S)-2-ethyl-1-(hydroxymethyl)heptyl]thiophene-2-sulfonamide]
fold induction at 20 µg/mL [1, 2]: 4.5

CCC[C@H](c1ccc(OC)cc1)[C@@H](CO)NS(=O)(=O)c1ccc(Cl)s1 [Example 36, 5-chloro-N-[(1S,2R)-1-(hydroxymethyl)-2-(4-methoxyphenyl)pentyl]thiophene-2-sulfonamide]
fold induction at 20 µg/mL [1, 2]: 3.8

CCCCC(CC)C(CO)NS(=O)(=O)c1ccc(Cl)s1 (stereo not shown) [Example 21, 5-chloro-N-[2-ethyl-1-(hydroxymethyl)hexyl]thiophene-2-sulfonamide]
fold induction at 20 µg/mL [1]: 3.3

CCCCCC[C@@H](CC)[C@@H](CO)NS(=O)(=O)c1ccc(Br)s1 [Example 78A, 5-bromo-N-[(1S,2R)-2-ethyl-1-(hydroxymethyl)octyl]thiophene-2-sulfonamide]
fold induction at 20 µg/mL [1, 2]: 5.8

CC[C@H](CC(C)C)[C@@H](CO)NS(=O)(=O)c1ccc(Cl)s1 [Example 31, 5-chloro-N-[(1S,2R)-2-ethyl-1-(hydroxymethyl)-4-methylpentyl]thiophene-2-sulfonamide]
fold induction at 20 µg/mL [1, 2]: 4.4
